Data from patent US20220202799A1, “PHARMACEUTICAL FORMULATIONS CONTAINING P2Y14 ANTAGONISTS” (priority 2019, published 2022).
Values joined by “and” are separate entries in the source; they are usually repeats but may differ in a detail not shown here. Equal values may be shown once.

Assay: Effect of pH on solubility of PPTN in aqueous medium
Assay type: physicochemical
Description: The effect of pH on the solubility of PPTN in an aqueous medium was analyzed. Solutions of PPTN in either water or phosphate buffer at various pH values were incubated with agitation for 24-48 hours at room temperature then filtered to remove precipitates, and the PPTN concentration of the filtered solution was analyzed.

## Cl.O=C(O)c1cc(-c2ccc(C3CCNCC3)cc2)c2ccc(-c3ccc(C(F)(F)F)cc3)cc2c1 [KB-1801.HCl]
pH 1.9, 10 mM phosphate buffer, 24-48 h, ~22° C.
  [KB-1801.HCl] by HPLC Analysis (solubility): 0.0008 mg/mL and 1.6 μM
pH 2.8, 10 mM phosphate buffer, 24-48 h, ~22° C.
  [KB-1801.HCl] by HPLC Analysis (solubility): 0.0255 mg/mL and 50 μM
pH 4.8, 0 mM buffer (DIW), >24 h, ~25° C. (from initial sonication)
  [KB-1801.HCl] by HPLC Analysis (solubility): ~0.1 mg/mL and 195 μM
pH 6.6, 10 mM phosphate buffer, 24-48 h, ~22° C.
  [KB-1801.HCl] by HPLC Analysis (solubility): 0.0001 mg/mL and 0.2 μM
pH 8.2, 10 mM phosphate buffer, 24-48 h, ~22° C.
  [KB-1801.HCl] by HPLC Analysis (solubility): 0.0001 mg/mL and 0.2 μM
